{"source": "patent US10722505B2", "about": "“Substituted 2,4 diamino-quinoline as new anticancer agents” (GENOSCIENCE PHARMA, priority 2014, dated 2020)", "key": {"KG-1 cell line": {"tested_on": "KG-1 cell line", "test": "CellTiter-Glo growth inhibition assay, KG-1", "assay_type": "cell-based", "settings": "Homo sapiens; KG-1, acute myelogenous leukemia, 72 h", "protocol": "(§1) All cell lines were maintained in medium containing 1% penicillin-streptomycin (Dutscher, P06-07100) and 10% Fetal Bovine Serum (Gibco, W3387L) except 20% for KG-1 cell line and PBMC, and cultured at 37° C. with 5% CO2.\n(§2) KG-1 and MV4-11 cell line were maintained in Iscove's modified Dulbecco's medium (Dutscher, L0190).\n(§3) Cell viability was measured using the CellTiter-Glo® luminescent cell viability assay as described by the manufacturer (Promega, Ref G7571) using an Infinite F200Pro luminometer (Tecan). Briefly, for adherent cells, cells were plated onto 96-well plates (white with clear bottom) in 90 μL of media per well and were allowed to grow overnight before the assay. For cells growing in suspension, cells were plated onto 96-well plates immediately before the assay.\n(§4) Compounds were added at different concentrations to each well, and cell cultures were incubated for 72 h. Vehicle (H2O) was used as a control, and all compounds were tested in a constant percentage of H2O. After addition of 100 μL of CellTiter-Glo®, luminescence was measured using an Infinite F200Pro (Tecan). EC50 values were determined as the dose of compound required to reduce luminescent values to 50% of the signal obtained for untreated cell cultures. The experimental data were analyzed using a computer program, Graphpad Prism v5 (GraphPad Software, Inc. La Jolla, Calif.). […]"}, "MV4-11 cell line": {"tested_on": "MV4-11 cell line", "test": "CellTiter-Glo growth inhibition assay, MV4-11", "assay_type": "cell-based", "settings": "Homo sapiens; MV4-11, biphenotypic B myelomonocytic leukemia, 72 h", "protocol": "as §1, §2, §3, §4"}, "[1]": {"tested_on": "PBMC (peripheral blood mononuclear cell)", "test": "CellTiter-Glo growth inhibition assay, PBMC", "assay_type": "cell-based", "settings": "72 h", "protocol": "as §1\nPBMC was maintained in RPMI 1640 medium medium (Dutscher, L0498).\nas §3, §4"}, "HCT-116 cell line": {"tested_on": "HCT-116 cell line", "test": "CellTiter-Glo growth inhibition assay, HCT-116", "assay_type": "cell-based", "settings": "Homo sapiens; HCT-116, colorectal carcinoma, 72 h", "protocol": "as §1\n(§5) HepG2, Huh7, HCT-116, MDA-MB-231 and A375 cell lines were cultured in Dulbecco's modified Eagle's medium (Dutscher, L0103).\nas §3, §4"}, "HepG2 cell line": {"tested_on": "HepG2 cell line", "test": "CellTiter-Glo growth inhibition assay, HepG2", "assay_type": "cell-based", "settings": "Homo sapiens; HepG2, hepatocellular carcinoma, 72 h", "protocol": "as §1, §5, §3, §4"}, "Hep3B-Luc cell line": {"tested_on": "Hep3B-Luc cell line", "test": "CellTiter-Glo growth inhibition assay, Hep3B-Luc", "assay_type": "cell-based", "settings": "Homo sapiens, Hep 3B-Luc, 72 h", "protocol": "Before compound treatment, the compound was dissolved in H2O to make a 10 mM stock solution. The working solutions (5 folds final concentrations) were then prepared with MEM medium (Gibco, 1128319) containing 10% Fetal Bovine Serum (Gibco, 10099141).\nHep3B-Luc cell line (luciferase transfected human liver carcinoma cell line for orthotopic tumor model) was cultured in MEM Medium supplemented with 10% v/v Fetal Bovine Serum (FBS), 1% Penicillin-Streptomycin and maintained at 37° C. with 5% CO2. 800 cells were plated onto 384-well flat clear bottom white (Corning, 3707).\nCells in log-phase are collected and counted. Cell suspensions are added to each well of 384-well plate at 800 cells per well (total volume 40 μl). The margin wells are filled with PBS buffer. Test compound at various concentrations are added in duplicates (add 10 μl 5× compound solutions to the plate). The assay plate is incubated for 72 h in 37° C./5% CO2 incubator. Cell viability was measured using the CellTiter-Glo® luminescent cell viability assay as described by the manufacturer (Promega, Ref G7571). After addition of 100 μL of CellTiter-Glo® reactifs solution, luminescence was measured using a PHERAstar Plus luminometer. Data were recorded by PHERAstar Plus, Data acquisition and analysis were performed using Microsoft Excel program and GraphPad Prism v.6 software."}, "786-O cell line": {"tested_on": "786-O cell line", "test": "CellTiter-Glo growth inhibition assay, 786-O", "assay_type": "cell-based", "settings": "Homo sapiens, 786-0, 72 h", "protocol": "CAKI-1 and 786-0 cell lines were maintained in RPMI 1640 medium (Dutscher, L0498) containing 1% penicillin-streptomycin (Dutscher, P06-07100) and 10% Fetal Bovine Serum (Gibco, W3387L) and cultured at 37° C. with 5% CO2.\nas §3, with “Briefly,” for “Briefly, for adherent cells,”, “assay.” for “assay. For cells growing in suspension, cells were plated onto 96-well plates immediately before the assay.”\nCompounds 2-3 and two reference compounds (Sorafenib and Sunitinib) were added at different concentrations to each well, and cell cultures were incubated for 72 h. For compound 2-3 analysis, H2O was used as a negative control (=untreated) and all concentrations were tested in a constant percentage of H2O. For Sorafenib and Sunitinib analysis, DMSO was used as a negative control (=untreated) and all concentrations were tested in a constant percentage of DMSO. 72 h after incubation of compounds, 100 μL of CellTiter-Glo® were added to each well and luminescence was measured using an Infinite F200Pro (Tecan). EC50 values were determined as the dose of compound required to reduce luminescent values to 50% of the signal obtained for untreated cell cultures. The experimental data were analyzed using a computer program, Graphpad Prism v5 (GraphPad Software, Inc. La Jolla, Calif.). All experiments were at least done in triplicate and repeated at least three independent times."}, "[2]": {"tested_on": "LI0752 HCC patient derived cells", "test": "CellTiter-Glo growth inhibition, HCC patient-derived cells LI0752", "assay_type": "cell-based, human", "settings": "Homo sapiens; LI0752, 72 hours", "protocol": "The patient derived Hepatocellular Carcinoma (HCC) cells were maintained in medium respectively described in table 15 containing 1% penicillin-streptomycin (Life Technologies, 15070-063), with a supplements for primary cell culture (PCS) containing hydrocortisone (50 nM), Epidermal Growth Factor (20 ng/ml), β-fibroblast Growth Factor (10 ng/ml), Heparin (2 μg/ml) ITS liquid media supplement (1×) and non-essential amino acid (NEAA, 0.01 mM, 1×). The primary cell were cultured in a humidified atmosphere (95% relative humidity) with 5% CO2 at 37° C.\nThe cell growth inhibition assay was performed as described previously in example 5 using the CellTiter-Glo® luminescent cell viability assay as described by the manufacturer (Promega, Ref G7571). The number of cells seeded per well (in 96-Well Flat Clear Bottom Black Polystyrene TC-Treated Microplates, Cat #3340, Corning®) is described in the table 16. A backseal black sticker (Cat #6005189, Perkin Elmer) was placed to the bottom of each plate before recording CellTiter-Glo® luminescence.\nThe experimental data are analyzed using a computer program, Graphpad Prism V 5.0 (GraphPad Software, Inc. La Jolla, Calif.) and EC50 values were determined as the dose of compound required to reduce absorbance values to 50% of the signal obtained for vehicle treated cell cultures and were a mean of at least three independent experiments."}}, "note": "Structures can show the parent of a compound that is named as a salt.", "data": [{"smiles": "CC(C)(C)NC1CCN(c2cc(NCc3ccc(Cl)cc3)nc3ccccc23)CC1", "note": "[Compound 2-3, 2-(4-chlorobenzylamino)-4-(4-tert-butylaminopiperidin-1-yl)-quinoline hydrochloride salt]", "values": [{"measurement": "EC50", "setting": "KG-1 cell line", "value": 5.1, "unit": "µM"}, {"measurement": "EC50", "setting": "MV4-11 cell line", "value": 2.3, "unit": "µM"}, {"measurement": "EC50", "setting": "[1]", "value": 1.9, "unit": "µM"}, {"measurement": "EC50", "setting": "HCT-116 cell line", "value": 1.6, "unit": "µM"}, {"measurement": "EC50", "setting": "HepG2 cell line", "value": 0.9, "unit": "µM"}, {"measurement": "EC50", "setting": "Hep3B-Luc cell line", "value": 1.1, "unit": "µM"}, {"measurement": "EC50", "setting": "786-O cell line", "value": 2.1, "unit": "µM"}, {"measurement": "EC50", "setting": "[2]", "value": 0.5, "unit": "µM"}]}]}
